# Laboratory results: US9622481B2, “Biofilm-removing antimicrobial compositions and uses thereof” (Kane Biotech Inc., priority 2009, dated 2017)
# How the values were obtained:
# Type in all cases: cell-based
# [1] = tested on: Pseudomonas aeruginosa biofilm; experiment: Biofilm formation, crystal violet staining, 96-well microplate (Example 2); conditions: reduction in biofilm formation, OD at 630 nm, 26°, 24 hours
# Experimental: (§1) An overnight broth culture of P. aeruginosa was grown in TSB and used as inoculum. 96-well microplates containing colony forming antigen medium (for […] species) in the absence and the presence of each compound (PS or BZK) separately and together (PS and BZK) were inoculated and incubated at 26° for 24 hours. Growth of planktonic cells based on absorbance at 600 nm using Labsystems Multiskan Ascent microplate reader was determined. Biofilm was measured by discarding the media in the wells, rinsing the well three times with water, and staining the bound cells with crystal violet. The dye was then solubilized with 33% acetic acid, and absorbance at 630 nm was determined using a microtiter plate reader.
# Escherichia coli biofilm [2] = experiment: Biofilm formation, crystal violet staining, 96-well microplate (Example 1); conditions: reduction in biofilm formation, OD at 630 nm, 26° C., 24 hours
# Experimental: as §1, with “E. coli” for “P. aeruginosa”, “26° C.” for “26°”
# Escherichia coli = experiment: Minimum inhibitory concentration (MIC) in 96-well microtiter plates; conditions: agent alone, TSB, 37° C., 24 hours
# Experimental: (§2) Bacterial strains were grown overnight at 37° C. with 100 rpm shaking in Tryptic Soy Broth (TSB) and diluted to approximately 10^5 CFU/ml. Assays were conducted by methods of minimum inhibitory concentration (MIC) in 96-well microtiter plates as described previously (Amsterdam, D. 1996, In: V. Loman, Ed., “Antibiotics in laboratory medicine”, p. 52-111, Williams and Wilkins, Baltimore, M.D.). Antimicrobials PS and SNP both alone and together were serially diluted in TSB (100 μl), and 100 μl of bacterial suspension was added to each well. Plates were incubated at 37° C. for 24 hours and read at 600 nm using a microtiter plate reader (Multiskan Ascent, Labsystems, Helsinki, Finland).
# S. aureus = experiment: as above; conditions: agent alone, TSB, 37° C., 24 hours
# Experimental: as §2
# [3] = tested on: Staphylococcus epidermidis biofilm; experiment: Biofilm formation, crystal violet staining, 96-well microplate (Example 3); conditions: reduction in biofilm formation, OD at 630 nm, 37° C., 24 hours
# Experimental: as §1, with “S. epidermidis” for “P. aeruginosa”, “TSB,” for “TSB”, “TSB” for “colony forming antigen medium”, “37° C.” for “26°”
# [4] = tested on: Pseudomonas aeruginosa biofilm; experiment: Biofilm formation, crystal violet staining, 96-well microtiter plate (Example 5); conditions: reduction in biofilm formation, OD at 630 nm, 37° C., 24 hours
# Experimental: (§3) An overnight broth culture of P. aeruginosa was grown in TSB and used as inoculum. 96-well microtiter plate containing TSB in the absence and presence of each compound separately (SMP or FU) and together (SMP+FU) were inoculated. The biofilm was grown by incubating at 37° C. for 24 hours. Growth of planktonic cells based on absorbance at 600 nm using Labsystems Multiskan Ascent microplate reader was determined. Biofilm was measured by discarding the media in the wells, rinsing the well three times with water, and staining the bound cells with crystal violet. The dye was then solubilized with 33% acetic acid, and absorbance at 630 nm was determined using a microtiter plate reader.
# Escherichia coli biofilm [5] = experiment: Biofilm formation, crystal violet staining, 96-well microtiter plate (Example 4); conditions: reduction in biofilm formation, OD at 630 nm, 37° C., 24 hours
# Experimental: as §3, with “E. coli” for “P. aeruginosa”
# [6] = tested on: Staphylococcus epidermidis biofilm; experiment: Biofilm formation, crystal violet staining, 96-well microtiter plate (Example 6); conditions: reduction in biofilm formation, OD at 630 nm, 37° C., 24 hours
# Experimental: as §3, with “S. epidermidis” for “P. aeruginosa”
# Escherichia coli biofilm [7] = experiment: Biofilm formation, crystal violet staining, 96-well microtiter plate (Example 7); conditions: reduction in biofilm formation, OD at 630 nm, 37° C., 24 hours
# Experimental: as §3, with “E. coli” for “P. aeruginosa”, “CHX)” for “FU)”, “(SMP+CHX)” for “(SMP+FU)”
# [8] = tested on: Pseudomonas aeruginosa biofilm; experiment: Biofilm formation, crystal violet staining, 96-well microplate (Example 8); conditions: reduction in biofilm formation, OD at 630 nm, 24 hours
# Experimental: An overnight broth culture of bacteria and yeast were grown in TSB and used as inoculum. 96-well microplates containing TSB (for gram-positive species and yeast) and colony forming unit antigen medium (for gram-negative bacteria) in the absence and the presence of each compound separately (SMP or CHX) and together (SMP+CHX) were inoculated. The biofilm was grown by incubating at 37° C. (for gram-positive bacteria and yeast) and 26° C. (for gram-negative bacteria) for 24 hours. Growth of planktonic cells based on absorbance at 600 nm using Labsystems Multiskan Ascent microplate reader was determined. Biofilm was measured by discarding the media in the wells, rinsing the well three times with water, and staining the bound cells with crystal violet. The dye was then solubilized with 33% acetic acid, and absorbance at 630 nm was determined using a microtiter plate reader.
# [9] = tested on: Staphylococcus epidermidis biofilm; experiment: Biofilm formation, crystal violet staining, 96-well microtiter plate (Example 9); conditions: reduction in biofilm formation, OD at 630 nm, 37° C., 24 hours
# Experimental: as §3, with “S. epidermidis” for “P. aeruginosa”, “CHX)” for “FU)”, “(SMP+CHX)” for “(SMP+FU)”
compound,measurement,setting,value
protamine sulfate [PS],Biofilm Inhibition by PS,[1]; PS 25 μg/ml alone,0.00 OD
same,Biofilm Inhibition by PS,Escherichia coli biofilm [2]; PS 12 μg/ml alone,0.04 OD
same,MIC,Escherichia coli,>200 µg/mL
same,MIC,S. aureus,>200 µg/mL
same,Biofilm Inhibition by PS,[3]; PS 1.5 μg/ml alone,0.34 OD
"O=c1[nH]cc(F)c(=O)[nH]1 [FU, 5-fluorouracil]",Biofilm Inhibition by FU,[4]; FU 3.75 μg/ml alone,0.00 OD
same,Biofilm Inhibition by FU,Escherichia coli biofilm [5]; FU 6.25 μg/ml alone,0.17 OD
same,Biofilm Inhibition by FU,[6]; FU 20 μg/ml alone,1.43 OD
"[Na+].[O-][I+3]([O-])([O-])[O-] [SMP, sodium metaperiodate]",Biofilm Inhibition by SMP,Escherichia coli biofilm [7]; SMP 250 μg/ml alone,0.12 OD
same,Biofilm Inhibition by SMP,[8]; SMP 125 μg/ml alone,0.17 OD
same,Biofilm Inhibition by SMP,[4]; SMP 250 μg/ml alone,0.16 OD
same,Biofilm Inhibition by SMP,[9]; SMP 250 μg/ml alone,0.00 OD
same,Biofilm Inhibition by SMP,Escherichia coli biofilm [5]; SMP 250 μg/ml alone,0.3 OD
same,Biofilm Inhibition by SMP,[6]; SMP 250 μg/ml alone,0.00 OD
"[H]/N=C(\N/C(=N/[H])NCCCCCCNC(=N)NC(=N)Nc1ccc(Cl)cc1)Nc1ccc(Cl)cc1 [CHX, chlorhexidine]",Biofilm Inhibition by CHX,Escherichia coli biofilm [7]; CHX 1 μg/ml alone,0.04 OD
same,Biofilm Inhibition by CHX,[8]; CHX 6 μg/ml alone,0.66 OD
same,Biofilm Inhibition by CHX,[9]; CHX 0.5 μg/ml alone,0.00 OD
benzalkonium chloride [BZK],Biofilm Inhibition by BZK,[1]; BZK 12.5 μg/ml alone,0.00 OD
same,Biofilm Inhibition by BZK,Escherichia coli biofilm [2]; BZK 6 μg/ml alone,0.14 OD
same,Biofilm Inhibition by BZK,[3]; BZK 0.8 μg/ml alone,1.21 OD
